# Structures can show the parent of a compound that is named as a salt.
# Molecular target: T1, recombinant human NK1 receptors (Homo sapiens, UniProt P25103)
# T1 construct: expressed in transfected cells; host or cells: Chinese Hamster Ovary (CHO) cells, membrane preparation
# Assay: NK1-receptor binding affinity, displacement of [3H]-substance P
# Details: displacement of [3H]-substance P from recombinant human NK1 receptors expressed in CHO cell membranes; average of at least two determinations
# Description: NK1-receptor binding affinity has been determined in vitro by the compounds' ability to displace [3H]-substance P (SP) from recombinant human NK1 receptors expressed in Chinese Hamster Ovary (CHO) cell membranes.
# CHO cell membranes were prepared by using a modification of the method described by Dam T and Quirion R (Peptides, 7:855-864, 1986). Thus ligand binding was performed in 0.4 ml of 50 mM HEPES, pH 7.4, containing 3 mM MnCl2, 0.02% BSA, 0.5 nM [^3H]-Substance P (30÷56 Ci/mmol, Amersham), a final membrane concentration of 25 μg of protein/ml, and the test compounds. The incubation proceeded at room temperature for 40 min. Non-specific binding was determined using excess of Substance P (1 μM) and represents about 6% of the total binding.
# The affinity of the compound of the invention for NK1 receptor was determined using the NK1-receptor binding affinity method measuring in vitro by the compounds' ability to displace [3H]-substance P (SP) from recombinant human NK1 receptors expressed in Chinese Hamster Ovary (CHO) cell membranes. The affinity values are expressed as negative logarithm of the inhibition constant (Ki) of displacer ligands (pKi).
# The pKi values obtained as the average of at least two determinations with representative compounds of the invention are given in the following table: […]
# T1 sequence (P25103 whole entry): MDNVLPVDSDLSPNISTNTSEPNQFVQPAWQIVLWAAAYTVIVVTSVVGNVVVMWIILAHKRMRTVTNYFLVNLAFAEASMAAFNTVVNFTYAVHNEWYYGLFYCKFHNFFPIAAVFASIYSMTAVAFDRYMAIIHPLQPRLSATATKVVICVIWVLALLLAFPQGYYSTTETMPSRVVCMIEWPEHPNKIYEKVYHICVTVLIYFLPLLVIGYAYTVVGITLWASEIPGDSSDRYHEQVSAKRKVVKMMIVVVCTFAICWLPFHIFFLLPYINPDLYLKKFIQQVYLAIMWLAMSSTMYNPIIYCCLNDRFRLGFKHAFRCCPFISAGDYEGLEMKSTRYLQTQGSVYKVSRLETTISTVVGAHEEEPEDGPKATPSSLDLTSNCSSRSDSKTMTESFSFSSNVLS
row,Compound,Ki [nM]
1,"Cc1cc(C)cc(CN(C)C(=O)N2CCNC[C@@H]2c2ccc(F)cc2C)c1 [Example 2, 2-(S)-(4Fluoro-2-methyl-phenyl)piperazine-1-carboxylic Acid, (3,5-dimethyl-benzyl)-methylamide Hydrochloride]",0.724
2,"Cc1cc(F)ccc1[C@H]1CNCCN1C(=O)N(C)Cc1cc(Cl)cc(Cl)c1.Cl [Example 3, 2-(S)-(4-Fluoro-2-methyl-phenyl)-piperazine-1-carboxylic Acid, (3,5-dichloro-benzyl)-methylamide Hydrochloride]",0.372
3,"Cc1cc(F)ccc1[C@H]1CNCCN1C(=O)N(C)Cc1cc(F)cc(F)c1 [Example 6, 2-(S)-(4-Fluoro-2-methyl-phenyl)-piperazine-1-carboxylic Acid, (3,5-difluoro-benzyl)-methylamide Hydrochloride]",1.66
4,"Cc1cc(F)ccc1[C@H]1CNCCN1C(=O)N(C)Cc1cc(Cl)ccc1Cl [Example 7, 2-(S)-(4-Fluoro-2-methyl-phenyl)-piperazine-1-carboxylic Acid, (2,5-dichloro-benzyl)-methylamide Hydrochloride]",0.851
5,"Cc1cc(F)ccc1[C@H]1CNCCN1C(=O)N(C)Cc1ccc(Cl)c(Cl)c1 [Example 8, 2-(S)-(4-fluoro-2-methyl-phenyl)-piperazine-1-carboxylic Acid, (3,4-dichlorobenzyl)-methylamide Trifluoroacetate]",0.646

# Tested on: not given
# Assay: not given
# Details: not given
row,Compound,melting point [°C]
1,"Cc1cc(F)ccc1[C@H]1CNCCN1C(=O)N(C)Cc1cc(Cl)cc(Cl)c1.Cl [Example 3, 2-(S)-(4-Fluoro-2-methyl-phenyl)-piperazine-1-carboxylic Acid, (3,5-dichloro-benzyl)-methylamide Hydrochloride]",110 to 112
